Measured values reported in PubChem BioAssay AID504627 (NMMLSC, 2011).
Activity calls are given as the source filed them.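 How the source made its calls: active means polarization drop versus untreated control wells larger than 25 mP; inactive means the rest.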

Assays:
Assay in all cases: BclXL, Bcl2, Bfl1, BclB binding displacement – biochemical, fluorescence polarization, powder compounds set 1, panel, dose response (AID 504627)
[1] = biological target: Apoptosis regulator Bcl-2 (Homo sapiens) (UniProt P10415); details: GST-Bcl-2 family protein, FITC-peptide fluorescence polarization, Bcl2; for polarization signal (mP), lower = inhibition: at 50 µM (top of the series)
[2] = biological target: Bcl-2-related protein A1 (Homo sapiens) (UniProt Q16548); details: GST-Bcl-2 family protein, FITC-peptide fluorescence polarization, Bfl1; for polarization signal (mP), lower = inhibition: at 50 µM (top of the series)
[3] = biological target: Bcl-2-like protein 1 (Homo sapiens) (UniProt Q07817); details: GST-Bcl-2 family protein, FITC-peptide fluorescence polarization, BclXL; for polarization signal (mP), lower = inhibition: at 50 µM (top of the series)
[4] = biological target: Bcl-2-like protein 10 (Homo sapiens) (UniProt Q9HD36); details: GST-Bcl-2 family protein, FITC-peptide fluorescence polarization, BclB; for polarization signal (mP), lower = inhibition: at 50 µM (top of the series)
Bcl-2-like protein 10 (Homo sapiens), sequence (Q9HD36 whole entry, looked up): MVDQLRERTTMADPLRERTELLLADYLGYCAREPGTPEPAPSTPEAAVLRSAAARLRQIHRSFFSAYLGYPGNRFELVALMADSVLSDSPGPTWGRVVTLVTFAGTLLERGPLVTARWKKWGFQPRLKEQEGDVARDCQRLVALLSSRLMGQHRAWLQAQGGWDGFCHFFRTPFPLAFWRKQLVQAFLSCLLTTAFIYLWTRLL

Bcl-2-like protein 1 (Homo sapiens), sequence (Q07817 whole entry, looked up): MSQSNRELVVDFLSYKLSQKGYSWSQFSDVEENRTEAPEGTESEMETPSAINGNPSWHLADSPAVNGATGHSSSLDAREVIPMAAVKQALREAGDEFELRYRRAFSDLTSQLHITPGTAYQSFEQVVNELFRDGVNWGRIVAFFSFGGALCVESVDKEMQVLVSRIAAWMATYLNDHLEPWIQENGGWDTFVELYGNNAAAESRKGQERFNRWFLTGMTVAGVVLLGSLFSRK
Bcl-2-related protein A1 (Homo sapiens), sequence (Q16548 whole entry, looked up): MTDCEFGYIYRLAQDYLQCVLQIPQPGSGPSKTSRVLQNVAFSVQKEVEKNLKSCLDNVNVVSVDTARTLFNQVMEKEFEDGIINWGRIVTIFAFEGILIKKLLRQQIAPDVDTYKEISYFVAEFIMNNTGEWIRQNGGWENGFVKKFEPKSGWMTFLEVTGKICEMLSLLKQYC
Apoptosis regulator Bcl-2 (Homo sapiens), sequence (P10415 whole entry, looked up): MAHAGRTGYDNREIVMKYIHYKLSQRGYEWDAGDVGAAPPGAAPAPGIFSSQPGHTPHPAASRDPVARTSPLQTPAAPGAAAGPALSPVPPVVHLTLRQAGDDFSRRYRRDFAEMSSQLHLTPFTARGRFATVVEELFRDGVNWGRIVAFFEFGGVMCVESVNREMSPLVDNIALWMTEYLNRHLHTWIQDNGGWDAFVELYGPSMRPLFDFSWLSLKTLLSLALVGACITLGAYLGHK

For `Oc1ccc(NCc2ccccc2OCc2ccccc2)cc1`, the “polarization signal (mP), lower = inhibition” value [1] was “inactive”, the “polarization signal (mP), lower = inhibition” value [2] was “inactive” and the “polarization signal (mP), lower = inhibition” value [3] was “inactive”. For the same compound, the “polarization signal (mP), lower = inhibition” value [4] was “inactive”.

`Cc1cc(-c2cc(-c3ccc(Cl)cc3)nc(N)c2C#N)co1` was tested, and the “polarization signal (mP), lower = inhibition” value [1] was “inactive”, the “polarization signal (mP), lower = inhibition” value [2] was “inactive” and the “polarization signal (mP), lower = inhibition” value [3] was “inactive”. For the same compound, the “polarization signal (mP), lower = inhibition” value [4] was “inactive”.

In the case of `O=C1NC(=O)C2(Cc3c(nc4ccccn4c3=O)N3CCCCCC32)C(=O)N1Cc1ccccc1` (stereo not given), the “polarization signal (mP), lower = inhibition” value [1] is reported as “inactive”, the “polarization signal (mP), lower = inhibition” value [2] is reported as “inactive” and the “polarization signal (mP), lower = inhibition” value [3] is reported as “inactive”. For the same compound, the IC50 [4] was 1.16 µM.

In the case of `Cc1ccc(-c2cc(-c3ccc(C)o3)nc(N)c2C#N)cc1`, the “polarization signal (mP), lower = inhibition” value [1] is reported as “inactive”, the “polarization signal (mP), lower = inhibition” value [2] is reported as “inactive” and the “polarization signal (mP), lower = inhibition” value [3] is reported as “inactive”. For the same compound, the “polarization signal (mP), lower = inhibition” value [4] was “inactive”.

For `O=c1c2c(n3nnnc3n1Cc1ccccc1)-c1ccccc1CC21CCCC1`, the “polarization signal (mP), lower = inhibition” value [1] was “inactive”, the “polarization signal (mP), lower = inhibition” value [2] was “inactive” and the “polarization signal (mP), lower = inhibition” value [3] was “inactive”. For the same compound, the IC50 [4] was 1.13 µM.

In the case of `Cc1ccc(-c2cc(-c3ccc(F)cc3)c(C#N)c(N)n2)o1`, the “polarization signal (mP), lower = inhibition” value [1] is reported as “inactive”, the “polarization signal (mP), lower = inhibition” value [2] is reported as “inactive” and the “polarization signal (mP), lower = inhibition” value [3] is reported as “inactive”. For the same compound, the “polarization signal (mP), lower = inhibition” value [4] was “inactive”.

`Cc1ccc(C=NNC(=O)CSc2nnc(-c3ccc(Cl)cc3)n2-c2ccccc2)o1` was tested, and the “polarization signal (mP), lower = inhibition” value [1] was “inactive”, the “polarization signal (mP), lower = inhibition” value [2] was “inactive” and the “polarization signal (mP), lower = inhibition” value [3] was “inactive”. The IC50 [4] was 8.58 µM.

Work on `O=C1C(Cl)=C(N2CCN(c3ccccc3[N+](=O)[O-])CC2)C(=O)c2ccccc21` yielded an IC50 [1] of 5.64 µM, an IC50 [2] of 2.73 µM and an IC50 [3] of 4.4 µM. It also gave an IC50 [4] of 3.99 µM.

For `CNC(CC(=O)c1ccc([N+](=O)[O-])cc1)C(Cl)(Cl)Cl` (stereo not given), the “polarization signal (mP), lower = inhibition” value [1] was “inactive”, the “polarization signal (mP), lower = inhibition” value [2] was “inactive” and the “polarization signal (mP), lower = inhibition” value [3] was “inactive”. The “polarization signal (mP), lower = inhibition” value [4] was “inactive”.

For `COc1ccccc1-n1c(-c2ccccc2)c[nH]c1=S`, the “polarization signal (mP), lower = inhibition” value [1] was “inactive”, the “polarization signal (mP), lower = inhibition” value [2] was “inactive” and the “polarization signal (mP), lower = inhibition” value [3] was “inactive”. For the same compound, the “polarization signal (mP), lower = inhibition” value [4] was “inactive”.
